Source: US9546157B2, “Asymmetric piperidinyl-substituted ureas as medicines” (Helsinn Healthcare SA, priority 2014, dated 2017)

What was measured:
GHSR1a [1] = biological target: T1, GHSR1a (Homo sapiens, UniProt Q92847); experiment: Calcium FLIPR assay, GHSR-1a antagonism (reduction of ghrelin response); assay type: cell-based; settings: HEK293/GHSR1a cells, ghrelin 10 nM
T1 construct: expressed in transfected cells; host or cells: HEK293
Method in brief: (§1)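 Calcium dye-loaded HEK293/GHSR1a cells were monitored by FLIPR fluorescence for 2 min after additions at t=20 s. For antagonist mode, compound was co-added with ghrelin (10 nM) and scored by lowering the ghrelin signal. Agonist mode added compound alone; EC50 and IC50 came from dose-response data.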

GHSR1a [2] = biological target: T1, GHSR1a; experiment: Calcium FLIPR assay, GHSR-1a agonism; assay type: cell-based; set-up: Emax: unit not given here; settings: HEK293/GHSR1a cells
Method in brief: as §1

T1 sequence (Q92847 whole entry): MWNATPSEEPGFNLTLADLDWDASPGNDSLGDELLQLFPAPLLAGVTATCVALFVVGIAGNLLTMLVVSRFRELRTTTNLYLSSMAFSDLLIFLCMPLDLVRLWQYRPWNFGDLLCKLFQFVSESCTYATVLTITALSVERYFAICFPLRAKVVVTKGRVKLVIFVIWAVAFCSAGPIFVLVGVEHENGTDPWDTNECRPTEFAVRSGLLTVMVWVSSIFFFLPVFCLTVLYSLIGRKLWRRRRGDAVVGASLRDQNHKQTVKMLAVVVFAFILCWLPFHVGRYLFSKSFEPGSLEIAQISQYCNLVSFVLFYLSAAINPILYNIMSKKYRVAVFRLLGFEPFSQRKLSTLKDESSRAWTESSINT

Row | IC50 (GHSR1a [1]) [nM] | EC50 (GHSR1a [2]) [nM] | Emax (GHSR1a [2]) | SMILES
1 | 3 | 10 | 4435 | CC(NC(=O)N(C)C1CCN(C)CC1)c1ccc(-c2csc(N)n2)c(Cl)c1Cl (centres unmarked) [Compound H0794, 3-(1-(4-(2-aminothiazol-4-yl)-2,3-dichlorophenyl)ethyl)-1-methyl-1-(1-methylpiperidin-4-yl)urea]
2 | 594 | 1800 | 2879 | CC(NC(=O)N(C)C1CCN(C)CC1)c1ccc(-c2cnc(O)nc2)c(Cl)c1Cl (centres unmarked) [Compound H0797, 3-(1-(2,3-dichloro-4-(2-hydroxypyrimidin-5-yl)phenyl)ethyl)-1-methyl-1-(1-methylpiperidin-4-yl)urea]
3 | 1300 | > 30000 |  | CC(NC(=O)N(C)C1CCN(C)CC1)c1ccc(-c2cnc(F)nc2)c(Cl)c1Cl (centres unmarked) [Compound H0800, 3-(1-(2,3-dichloro-4-(2-fluoropyrimidin-5-yl)phenyl)ethyl)-1-methyl-1-(1-methylpiperidin-4-yl)urea]
4 | 20 | 45 | 3915 | CC(NC(=O)N(C)C1CCN(C)CC1)c1ccc(-c2cnc(Cl)nc2)c(Cl)c1Cl (centres unmarked) [Compound H0801, 3-(1-(2,3-dichloro-4-(2-chloropyrimidin-5-yl)phenyl)ethyl)-1-methyl-1-(1-methylpiperidin-4-yl)urea]
5 | 99 | 153 | 4149 | CC(NC(=O)N(C)C1CCN(C)CC1)c1ccc(-c2cnc(C#N)nc2)c(Cl)c1Cl (centres unmarked) [Compound H0802, 3-(1-(2,3-dichloro-4-(2-cyanopyrimidin-5-yl)phenyl)ethyl)-1-methyl-1-(1-methylpiperidin-4-yl)urea]
6 | 149 | 217 | 2339 | CC(NC(=O)N(C)C1CCN(C)CC1)c1ccc(-c2ccc(C#N)cc2)c(Cl)c1Cl (centres unmarked) [Compound H0809, 3-(1-(2,3-dichloro-4′-cyano-[1,1′-biphenyl]-4-yl)ethyl)-1-methyl-1-(1-methylpiperidin-4-yl)urea]
7 | 176 | > 30000 |  | Cc1cncc(-c2ccc(C(C)NC(=O)N(C)C3CCN(C)CC3)c(Cl)c2Cl)n1 (centres unmarked) [Compound H0815, 3-(1-(2,3-dichloro-4-(6-methylpyrazin-2-yl)phenyl)ethyl)-1-methyl-1-(1-methylpiperidin-4-yl)urea]

Continued, compound first:

Row | SMILES | IC50 (GHSR1a [1]) [nM] | EC50 (GHSR1a [2]) [nM] | Emax (GHSR1a [2])
8 | CC(NC(=O)N(C)C1CCN(C)CC1)c1ccc(-c2nc(N3CCOCC3)nc(N3CCOCC3)n2)c(Cl)c1Cl (centres unmarked) [Compound H0796, 3-(1-(2,3-dichloro-4-(4,6-dimorpholino-1,3,5-triazin-2-yl)phenyl)ethyl)-1-methyl-1-(1-methylpiperidin-4-yl)urea] | 826 | 3000 | 1671
9 | CC(NC(=O)N(C)C1CCN(C)CC1)c1ccc(-c2cnc(N)nc2)c(Cl)c1Cl (centres unmarked) [Compound H0798, 3-(1-(4-(2-aminopyrimidin-5-yl)-2,3-dichlorophenyl)ethyl)-1-methyl-1-(1-methylpiperidin-4-yl)urea] | 162 | > 30000 | 
10 | CC(NC(=O)N(C)C1CCN(C)CC1)c1ccc(-c2cnc(N3CCN(C)CC3)nc2)c(Cl)c1Cl (centres unmarked) [Compound H0799, 3-(1-(2,3-dichloro-4-(2-(4-methylpiperazin-1-yl)pyrimidin-5-yl)phenyl)ethyl)-1-methyl-1-(1-methylpiperidin-4-yl)urea] | 5.4 | 14 | 5031
11 | CC(NC(=O)N(C)C1CCN(C)CC1)c1ccc(-c2cnc(-n3ccnc3)nc2)c(Cl)c1Cl (centres unmarked) [Compound H0803, 3-(1-(4-(2-(1H-imidazol-1-yl)pyrimidin-5-yl)-2,3-dichlorophenyl)ethyl)-1-methyl-1-(1-methylpiperidin-4-yl)urea] | 171 | 149 | 2364
12 | CC(NC(=O)N(C)C1CCN(C)CC1)c1ccc(-c2cnc(N(C)C)nc2)c(Cl)c1Cl (centres unmarked) [Compound H0804, 3-(1-(2,3-dichloro-4-(2-(dimethylamino)pyrimidin-5-yl)phenyl)ethyl)-1-methyl-1-(1-methylpiperidin-4-yl)urea] | 375 | 263 | 2740
13 | CC(NC(=O)N(C)C1CCN(C)CC1)c1ccc(-c2cnc(NC3CC3)nc2)c(Cl)c1Cl (centres unmarked) [Compound H0805, 3-(1-(2,3-dichloro-4-(2-(cyclopropylamino)pyrimidin-5-yl)phenyl)ethyl)-1-methyl-1-(1-methylpiperidin-4-yl)urea] | 4 | 9 | 5433
14 | CNc1ncc(-c2ccc(C(C)NC(=O)N(C)C3CCN(C)CC3)c(Cl)c2Cl)cn1 (centres unmarked) [Compound H0806, 3-(1-(2,3-dichloro-4-(2-(methylamino)pyrimidin-5-yl)phenyl)ethyl)-1-methyl-1-(1-methylpiperidin-4-yl)urea] | 1.2 | 6.8 | 5751
15 | CC(NC(=O)N(C)C1CCN(C)CC1)c1ccc(-c2cnc(NC(=O)C3CC3)nc2)c(Cl)c1Cl (centres unmarked) [Compound H0807, N-(5-(2,3-dichloro-4-(1-(3-methyl-3-(1-methylpiperidin-4-yl)ureido)ethyl)phenyl)pyrimidin-2-yl)cyclopropanecarboxamide] | 14 | 24 | 3669
16 | Cc1cc(-c2ccc(C(C)NC(=O)N(C)C3CCN(C)CC3)c(Cl)c2Cl)ncn1 (centres unmarked) [Compound H0808, 3-(1-(2,3-dichloro-4-(6-methylpyrimidin-4-yl)phenyl)ethyl)-1-methyl-1-(1-methylpiperidin-4-yl)urea] | 674 | 90 | 1494
17 | CC(NC(=O)N(C)C1CCN(C)CC1)c1ccc(-c2cccc(F)c2)c(Cl)c1Cl (centres unmarked) [Compound H0810, 3-(1-(2,3-dichloro-3′-fluoro-[1,1′-biphenyl]-4-yl)ethyl)-1-methyl-1-(1-methylpiperidin-4-yl)urea] | 20 | 22 | 2339
18 | CC(NC(=O)N(C)C1CCN(C)CC1)c1ccc(C#CCN2CCN(C)CC2)c(Cl)c1Cl (centres unmarked) [Compound H0812, 3-(1-(2,3-dichloro-4-(3-(4-methylpiperazin-1-yl)prop-1-yn-1-yl)phenyl)ethyl)-1-methyl-1-(1-methylpiperidin-4-yl)urea] | 1200 | 1500 | 871
19 | CC(NC(=O)N(C)C1CCN(C)CC1)c1ccc(-c2cnc(N3CCCC3)nc2)c(Cl)c1Cl (centres unmarked) [Compound H0813] | 644 | 528 | 1605
20 | CCN1CCN(c2ncc(-c3ccc(C(C)NC(=O)N(C)C4CCN(C)CC4)c(Cl)c3Cl)cn2)CC1=O (centres unmarked) [Compound H0814, 3-(1-(2,3-dichloro-4-(2-(4-ethyl-3-oxopiperazin-1-yl)pyrimidin-5-yl)phenyl)ethyl)-1-methyl-1-(1-methylpiperidin-4-yl)urea] | 926 | 15 | 1097
21 | CC(NC(=O)N(C)C1CCN(C)CC1)c1ccc(-c2ccc(C3CC3)nc2)c(Cl)c1Cl (centres unmarked) [Compound H0820, 3-(1-(2,3-dichloro-4-(6-cyclopropylpyridin-3-yl)phenyl)ethyl)-1-methyl-1-(1-methylpiperidin-4-yl)urea] | 5.7 | 9 | 3955
22 | CC(NC(=O)N(C)C1CCN(C)CC1)c1ccc(-c2cnc(N3CCN(C)CC3)c(C#N)c2)c(Cl)c1Cl (centres unmarked) [Compound H0821, 3-(1-(2,3-dichloro-4-(5-cyano-6-(4-methylpiperazin-1-yl)pyridin-3-yl)phenyl)ethyl)-1-methyl-1-(1-methylpiperidin-4-yl)urea] | 2300 | > 30000 | 
